Experimental data as given in EP1566447A1, “Glimepiride- and insulin-induced glycosylphosphatidylinositol-specific phospholipase C regulation” (priority 2004, dated 2005).
Entries after “also recorded” stand apart in the source; their conditions may differ.

What was measured:
[1] = molecular target: T1, Hormone-sensitive lipase (HSL) (Homo sapiens, UniProt Q05469); assay: selectivity: hormone-sensitive lipase assay; assay type: biochemical; details: 50 µM
T1 sequence (Q05469 1-1076): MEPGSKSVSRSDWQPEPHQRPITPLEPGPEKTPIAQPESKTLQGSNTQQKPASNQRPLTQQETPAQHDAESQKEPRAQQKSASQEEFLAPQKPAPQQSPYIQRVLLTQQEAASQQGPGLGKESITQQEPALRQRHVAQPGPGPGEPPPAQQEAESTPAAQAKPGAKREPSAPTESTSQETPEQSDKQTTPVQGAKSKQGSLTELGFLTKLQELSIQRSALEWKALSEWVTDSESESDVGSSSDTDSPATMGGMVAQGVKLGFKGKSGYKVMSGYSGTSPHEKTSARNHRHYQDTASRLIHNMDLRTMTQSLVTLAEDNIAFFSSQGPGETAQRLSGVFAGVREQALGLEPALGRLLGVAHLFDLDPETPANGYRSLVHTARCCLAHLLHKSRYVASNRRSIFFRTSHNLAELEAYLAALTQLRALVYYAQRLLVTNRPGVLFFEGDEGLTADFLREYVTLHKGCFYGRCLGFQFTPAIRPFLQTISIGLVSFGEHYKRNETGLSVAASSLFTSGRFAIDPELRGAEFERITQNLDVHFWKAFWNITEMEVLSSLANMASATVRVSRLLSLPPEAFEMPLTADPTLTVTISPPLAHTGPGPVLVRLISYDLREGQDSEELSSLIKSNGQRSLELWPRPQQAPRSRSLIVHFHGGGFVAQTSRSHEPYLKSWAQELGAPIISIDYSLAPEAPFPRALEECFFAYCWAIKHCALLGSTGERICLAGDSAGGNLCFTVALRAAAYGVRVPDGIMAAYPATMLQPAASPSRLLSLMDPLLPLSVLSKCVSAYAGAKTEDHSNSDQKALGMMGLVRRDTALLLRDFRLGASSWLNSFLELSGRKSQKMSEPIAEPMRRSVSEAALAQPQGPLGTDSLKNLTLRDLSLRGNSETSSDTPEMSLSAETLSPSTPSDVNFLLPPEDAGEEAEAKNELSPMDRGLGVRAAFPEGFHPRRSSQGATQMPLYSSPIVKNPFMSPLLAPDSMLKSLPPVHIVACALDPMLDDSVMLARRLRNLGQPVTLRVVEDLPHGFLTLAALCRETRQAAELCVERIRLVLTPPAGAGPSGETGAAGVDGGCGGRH
Experimental: Hormone-sensitive lipase (HSL) and lipoprotein lipase (LPL) were measured using a radiolabeled triolein droplet emulsion as described in "Vertesy et al., (2002) Journal Antibiotics 55:480-494". Pancreatic lipase (PL) was determined by incubation of 0.25 mmol tributyrin in 2 ml of 5 mM Tris/HCl (pH 6.5), 6 mM sodium taurodeoxycholate, 150 mM NaCl, 1 mM CaCl2 with porcine PL and colipase in the same buffer using a recording pH stat (stirring at 1000 rpm at 25°C) with the pH adjusted to 6.5. PC-PLC was assayed by incubation of 0.2 ml of 10 mM dipalmitoyllecithin, 0.1 ml of 10 mM SDC and 0.1 ml of 0.03 M CaCl2 with bacterial PC-PLC (in 50 mM Tris/HCl, pH 7.5, 0.1 % BSA) for 10 min at 37°C. The reaction was terminated by addition of 0.1 ml of 50 % TCA and subsequently of 2.5 ml of […]. After centrifugation (1500xg, 15 min), 0.2-ml portions of the upper methanol/water phase (~ 1.33 ml) was removed, supplemented with 0.5 ml of 60 % HClO4, then heated at 170°C for 1 h and finally analyzed for inorganic phosphate. Mammalian PI-PLC was measured by incubation of 0.1 ml of 10 mM PI, 0.1 ml of 0.8 % sodium deoxycholate, 0.1 % BSA, 0.2 ml of 100 mM sodium borate (pH 7.5) and rat liver PI-PLC for 20 min at 37°C. The reaction was terminated and further processed as described for the PC-PLC. […] Radioactive phosphatidic acid was detected by phosphorimaging. […]

Isolated rat adipocytes = assay: glimepiride-induced redistribution of signaling proteins within DIGs; assay type: cell-based; details: max. effective conc. (50 µM)

CCCCCCCCCCCCP1(=O)O[C@@H]2[C@H](O)[C@@H](O)[C@H](O)[C@@H](O)[C@@H]2O1 (mixture of isomers) [GPI-2350, myo-inositol-1,2-cyclo-dodecylphosphonic acid]
effect on lipase activity [1]: not significantly affected
effect on glimepiride-induced redistribution from hcDIGs to IcDIGs (Isolated rat adipocytes): almost complete blockade; also recorded: almost completely abolished
